Experimental findings from ChEMBL document CHEMBL5465560, “Selectivity Literature for EUbOPEN Chemogenomic Library” (2024) are described below.

Where only a bound is given, the exact number is not on record here.

Assay [1] concerns the target Serine/threonine-protein kinase SIK3 (Homo sapiens) (UniProt Q9Y2K2). Conditions: at 10 µM.
The target in assay [2] is Tyrosine-protein kinase JAK1 (Homo sapiens, UniProt P23458). The assay is described as follows: Selectivity interaction (NanoBRET assay (HEK293T cells)) EUB0001558a JAK1. Type of assay: cell-based, HEK-293T. A general note: Bioluminescence resonance energy transfer reports proximity on the nanometre scale.
For assay [3], the target named is T1, Ephrin type-A receptor 3 (Homo sapiens) (UniProt P29320).
T1 sequence (whole entry): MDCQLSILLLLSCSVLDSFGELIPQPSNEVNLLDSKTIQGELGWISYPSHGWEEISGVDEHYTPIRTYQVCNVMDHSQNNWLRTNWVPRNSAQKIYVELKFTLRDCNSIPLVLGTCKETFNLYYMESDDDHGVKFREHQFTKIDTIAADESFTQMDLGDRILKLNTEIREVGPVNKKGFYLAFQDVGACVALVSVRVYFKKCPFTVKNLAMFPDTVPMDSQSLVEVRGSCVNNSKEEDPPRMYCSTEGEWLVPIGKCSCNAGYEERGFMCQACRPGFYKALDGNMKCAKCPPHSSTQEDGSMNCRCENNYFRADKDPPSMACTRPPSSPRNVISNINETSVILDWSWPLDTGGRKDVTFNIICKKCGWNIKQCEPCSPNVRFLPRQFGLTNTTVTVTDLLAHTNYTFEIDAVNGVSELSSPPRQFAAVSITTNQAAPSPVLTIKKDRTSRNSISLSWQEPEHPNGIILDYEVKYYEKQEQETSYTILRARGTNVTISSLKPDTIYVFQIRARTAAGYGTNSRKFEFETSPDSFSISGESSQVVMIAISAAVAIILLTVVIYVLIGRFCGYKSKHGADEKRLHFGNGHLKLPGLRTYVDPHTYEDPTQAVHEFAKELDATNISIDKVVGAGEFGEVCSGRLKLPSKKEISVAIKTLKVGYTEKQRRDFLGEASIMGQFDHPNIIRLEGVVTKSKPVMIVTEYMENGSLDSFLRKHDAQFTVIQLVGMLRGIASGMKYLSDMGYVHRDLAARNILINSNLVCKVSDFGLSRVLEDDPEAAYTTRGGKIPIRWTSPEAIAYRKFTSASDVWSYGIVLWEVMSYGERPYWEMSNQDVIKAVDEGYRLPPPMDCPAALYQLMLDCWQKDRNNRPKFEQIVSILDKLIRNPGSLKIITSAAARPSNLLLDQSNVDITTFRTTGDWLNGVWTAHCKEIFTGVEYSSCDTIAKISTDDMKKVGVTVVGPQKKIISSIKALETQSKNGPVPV
The assay is described as follows: Selectivity interaction (Ambit KINOMEscan and KiNATiv profiling in Jurkat cells) EUB0000090b EPHA3. Conditions: at 1 µM. Type of assay: cell-based.

The target of assay [4] is T2, Serine/threonine-protein kinase tousled-like 1 (Homo sapiens) (UniProt Q9UKI8).
T2 sequence (whole entry): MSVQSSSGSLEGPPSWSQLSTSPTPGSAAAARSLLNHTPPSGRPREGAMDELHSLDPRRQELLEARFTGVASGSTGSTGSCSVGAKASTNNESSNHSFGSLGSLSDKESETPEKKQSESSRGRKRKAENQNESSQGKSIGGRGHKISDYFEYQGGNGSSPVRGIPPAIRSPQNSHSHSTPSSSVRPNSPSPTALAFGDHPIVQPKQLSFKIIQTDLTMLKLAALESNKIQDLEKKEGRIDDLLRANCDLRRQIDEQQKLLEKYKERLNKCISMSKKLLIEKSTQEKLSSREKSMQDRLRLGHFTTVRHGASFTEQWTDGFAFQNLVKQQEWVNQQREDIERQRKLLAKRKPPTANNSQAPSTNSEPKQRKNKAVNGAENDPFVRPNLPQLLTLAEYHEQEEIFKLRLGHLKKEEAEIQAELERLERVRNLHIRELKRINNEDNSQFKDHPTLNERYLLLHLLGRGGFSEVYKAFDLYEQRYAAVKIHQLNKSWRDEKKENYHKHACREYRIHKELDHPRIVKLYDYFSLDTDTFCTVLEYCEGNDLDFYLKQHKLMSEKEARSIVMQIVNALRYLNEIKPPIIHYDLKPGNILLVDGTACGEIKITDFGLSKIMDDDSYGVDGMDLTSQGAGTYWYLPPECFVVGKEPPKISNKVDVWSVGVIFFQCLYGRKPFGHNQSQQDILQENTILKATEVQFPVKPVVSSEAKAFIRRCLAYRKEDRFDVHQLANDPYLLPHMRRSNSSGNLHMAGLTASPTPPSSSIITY
Conditions: at 10 µM.

Assay [5] concerns the target Calcium/calmodulin-dependent protein kinase type II subunit beta (Homo sapiens) (UniProt Q13554). The assay is described as follows: Selectivity interaction (Kinase panel (Z-LYTE Assay)) EUB0001632a CAMK2B. Particulars: at 10 µM.
Assay [6] deals with Phosphatidylinositol 4-kinase beta (Homo sapiens, UniProt Q9UBF8). The assay is described as follows: Selectivity interaction (ActivX KiNativ screen (kinase selectivity in THP-1 cell lysates)) EUB0000639a PI4KB. Type of assay: subcellular. Conditions: lysate.
In assay [7] the target is Mitogen-activated protein kinase 9 (Homo sapiens, UniProt P45984). The assay is described as follows: Selectivity interaction (Kinase panel (Invitrogen)) EUB0000639a MAPK9. Conditions: at 200 nM.
In assay [8] the target is Epidermal growth factor receptor (Homo sapiens, UniProt P00533). The assay is described as follows: Selectivity interaction (Kinase panel (33PanQinase(R) Activity Assay)) EUB0000877a EGFR.
Assay [9] concerns the target T3, Mitogen-activated protein kinase 15 (Homo sapiens) (UniProt Q8TD08).
T3 sequence (whole entry): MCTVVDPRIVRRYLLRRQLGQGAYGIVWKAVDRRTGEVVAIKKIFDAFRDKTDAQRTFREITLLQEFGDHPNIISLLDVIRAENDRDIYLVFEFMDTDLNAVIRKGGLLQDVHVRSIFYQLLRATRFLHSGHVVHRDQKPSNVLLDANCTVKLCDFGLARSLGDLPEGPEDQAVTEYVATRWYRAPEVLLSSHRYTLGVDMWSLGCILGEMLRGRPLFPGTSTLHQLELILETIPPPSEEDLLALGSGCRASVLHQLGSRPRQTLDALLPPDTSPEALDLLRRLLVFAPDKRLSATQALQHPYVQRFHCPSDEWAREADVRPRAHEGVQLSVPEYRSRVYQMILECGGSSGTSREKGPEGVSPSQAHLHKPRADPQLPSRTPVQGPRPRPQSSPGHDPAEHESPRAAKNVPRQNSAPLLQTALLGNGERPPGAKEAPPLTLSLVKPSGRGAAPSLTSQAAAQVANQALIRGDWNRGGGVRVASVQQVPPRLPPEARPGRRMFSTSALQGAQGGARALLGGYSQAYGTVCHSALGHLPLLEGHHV
The assay is described as follows: Selectivity interaction (KinomeScan (DiscoverX)) EUB0000595a MAPK15. Conditions: at 10 µM.

Assay [10] deals with G protein-coupled receptor kinase 6 (Homo sapiens) (UniProt P43250). The assay is described as follows: Selectivity interaction (ActivX KiNativ screen (ex vivo kinase selectivity in human PBMCs)) EUB0001619a GRK6. It is filed as cell-based. Particulars: PBMC, at 1 µM.
Sequence of G protein-coupled receptor kinase 6 (Homo sapiens) (P43250 whole entry, looked up): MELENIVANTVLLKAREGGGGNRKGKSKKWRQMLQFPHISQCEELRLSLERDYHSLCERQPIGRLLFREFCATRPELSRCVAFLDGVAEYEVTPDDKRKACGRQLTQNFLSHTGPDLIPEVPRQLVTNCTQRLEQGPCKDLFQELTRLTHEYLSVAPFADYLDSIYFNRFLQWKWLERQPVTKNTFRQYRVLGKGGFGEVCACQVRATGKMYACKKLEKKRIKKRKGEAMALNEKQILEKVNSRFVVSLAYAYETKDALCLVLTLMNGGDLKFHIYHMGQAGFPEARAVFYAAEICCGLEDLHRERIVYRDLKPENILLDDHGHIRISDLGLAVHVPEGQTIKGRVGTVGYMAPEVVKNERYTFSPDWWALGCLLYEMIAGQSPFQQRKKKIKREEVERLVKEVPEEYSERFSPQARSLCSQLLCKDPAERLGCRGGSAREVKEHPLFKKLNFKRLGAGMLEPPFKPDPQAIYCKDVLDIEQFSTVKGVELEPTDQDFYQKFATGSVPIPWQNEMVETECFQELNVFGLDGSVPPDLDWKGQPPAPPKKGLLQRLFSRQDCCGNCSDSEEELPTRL

Sequence of Phosphatidylinositol 4-kinase beta (Q9UBF8 2-816 limits assumed): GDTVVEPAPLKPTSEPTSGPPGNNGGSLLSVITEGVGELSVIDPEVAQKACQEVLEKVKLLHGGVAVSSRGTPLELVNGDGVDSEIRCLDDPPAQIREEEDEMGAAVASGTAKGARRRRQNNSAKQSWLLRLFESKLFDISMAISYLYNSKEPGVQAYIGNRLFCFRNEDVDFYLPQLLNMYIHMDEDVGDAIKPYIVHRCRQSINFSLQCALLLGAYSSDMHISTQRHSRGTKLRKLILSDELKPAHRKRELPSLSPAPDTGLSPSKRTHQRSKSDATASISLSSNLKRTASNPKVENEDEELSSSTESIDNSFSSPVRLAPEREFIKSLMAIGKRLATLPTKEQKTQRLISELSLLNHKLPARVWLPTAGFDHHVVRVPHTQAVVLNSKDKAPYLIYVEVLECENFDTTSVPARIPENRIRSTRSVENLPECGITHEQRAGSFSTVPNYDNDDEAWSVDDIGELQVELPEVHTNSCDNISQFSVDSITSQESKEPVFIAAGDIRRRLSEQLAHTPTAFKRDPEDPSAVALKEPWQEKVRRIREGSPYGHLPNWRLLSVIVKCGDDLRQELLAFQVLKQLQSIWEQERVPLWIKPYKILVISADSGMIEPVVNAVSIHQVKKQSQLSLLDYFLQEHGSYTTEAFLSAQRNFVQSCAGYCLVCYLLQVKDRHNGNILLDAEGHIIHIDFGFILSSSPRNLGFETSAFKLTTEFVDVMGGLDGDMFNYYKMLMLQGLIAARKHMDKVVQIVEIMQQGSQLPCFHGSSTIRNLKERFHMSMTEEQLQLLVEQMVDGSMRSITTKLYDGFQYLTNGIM
Sequence of Epidermal growth factor receptor (P00533 whole entry): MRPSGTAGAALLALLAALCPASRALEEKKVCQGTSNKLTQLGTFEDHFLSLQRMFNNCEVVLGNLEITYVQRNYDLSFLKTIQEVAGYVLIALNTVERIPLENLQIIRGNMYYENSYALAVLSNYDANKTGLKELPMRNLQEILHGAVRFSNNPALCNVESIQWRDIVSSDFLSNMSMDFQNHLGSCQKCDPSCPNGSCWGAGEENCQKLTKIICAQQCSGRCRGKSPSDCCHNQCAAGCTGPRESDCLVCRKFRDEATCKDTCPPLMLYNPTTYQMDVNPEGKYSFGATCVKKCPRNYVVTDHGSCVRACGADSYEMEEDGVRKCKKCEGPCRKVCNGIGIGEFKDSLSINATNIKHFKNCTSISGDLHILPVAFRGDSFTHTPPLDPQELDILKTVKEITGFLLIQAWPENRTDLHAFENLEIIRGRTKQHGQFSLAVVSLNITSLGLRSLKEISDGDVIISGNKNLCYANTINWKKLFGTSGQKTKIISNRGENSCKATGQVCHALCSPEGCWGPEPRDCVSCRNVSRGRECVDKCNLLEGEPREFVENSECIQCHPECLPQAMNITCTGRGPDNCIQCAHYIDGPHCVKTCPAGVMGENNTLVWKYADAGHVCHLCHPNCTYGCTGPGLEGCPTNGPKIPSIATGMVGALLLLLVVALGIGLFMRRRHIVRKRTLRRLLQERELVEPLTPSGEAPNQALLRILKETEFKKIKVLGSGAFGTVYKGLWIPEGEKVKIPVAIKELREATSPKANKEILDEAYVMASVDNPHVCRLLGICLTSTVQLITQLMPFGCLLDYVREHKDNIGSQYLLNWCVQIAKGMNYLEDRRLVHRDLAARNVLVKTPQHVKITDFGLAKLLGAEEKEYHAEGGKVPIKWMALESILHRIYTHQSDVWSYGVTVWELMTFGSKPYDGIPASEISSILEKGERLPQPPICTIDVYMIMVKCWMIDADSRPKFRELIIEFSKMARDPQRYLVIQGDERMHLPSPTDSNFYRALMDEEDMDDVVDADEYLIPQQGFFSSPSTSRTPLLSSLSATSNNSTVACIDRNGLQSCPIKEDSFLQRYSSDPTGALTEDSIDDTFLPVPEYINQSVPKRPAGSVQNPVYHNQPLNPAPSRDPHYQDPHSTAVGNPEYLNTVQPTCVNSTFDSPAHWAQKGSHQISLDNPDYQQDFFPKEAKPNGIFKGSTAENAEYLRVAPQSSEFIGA
Sequence of Serine/threonine-protein kinase SIK3 (Homo sapiens) (Q9Y2K2 whole entry, looked up): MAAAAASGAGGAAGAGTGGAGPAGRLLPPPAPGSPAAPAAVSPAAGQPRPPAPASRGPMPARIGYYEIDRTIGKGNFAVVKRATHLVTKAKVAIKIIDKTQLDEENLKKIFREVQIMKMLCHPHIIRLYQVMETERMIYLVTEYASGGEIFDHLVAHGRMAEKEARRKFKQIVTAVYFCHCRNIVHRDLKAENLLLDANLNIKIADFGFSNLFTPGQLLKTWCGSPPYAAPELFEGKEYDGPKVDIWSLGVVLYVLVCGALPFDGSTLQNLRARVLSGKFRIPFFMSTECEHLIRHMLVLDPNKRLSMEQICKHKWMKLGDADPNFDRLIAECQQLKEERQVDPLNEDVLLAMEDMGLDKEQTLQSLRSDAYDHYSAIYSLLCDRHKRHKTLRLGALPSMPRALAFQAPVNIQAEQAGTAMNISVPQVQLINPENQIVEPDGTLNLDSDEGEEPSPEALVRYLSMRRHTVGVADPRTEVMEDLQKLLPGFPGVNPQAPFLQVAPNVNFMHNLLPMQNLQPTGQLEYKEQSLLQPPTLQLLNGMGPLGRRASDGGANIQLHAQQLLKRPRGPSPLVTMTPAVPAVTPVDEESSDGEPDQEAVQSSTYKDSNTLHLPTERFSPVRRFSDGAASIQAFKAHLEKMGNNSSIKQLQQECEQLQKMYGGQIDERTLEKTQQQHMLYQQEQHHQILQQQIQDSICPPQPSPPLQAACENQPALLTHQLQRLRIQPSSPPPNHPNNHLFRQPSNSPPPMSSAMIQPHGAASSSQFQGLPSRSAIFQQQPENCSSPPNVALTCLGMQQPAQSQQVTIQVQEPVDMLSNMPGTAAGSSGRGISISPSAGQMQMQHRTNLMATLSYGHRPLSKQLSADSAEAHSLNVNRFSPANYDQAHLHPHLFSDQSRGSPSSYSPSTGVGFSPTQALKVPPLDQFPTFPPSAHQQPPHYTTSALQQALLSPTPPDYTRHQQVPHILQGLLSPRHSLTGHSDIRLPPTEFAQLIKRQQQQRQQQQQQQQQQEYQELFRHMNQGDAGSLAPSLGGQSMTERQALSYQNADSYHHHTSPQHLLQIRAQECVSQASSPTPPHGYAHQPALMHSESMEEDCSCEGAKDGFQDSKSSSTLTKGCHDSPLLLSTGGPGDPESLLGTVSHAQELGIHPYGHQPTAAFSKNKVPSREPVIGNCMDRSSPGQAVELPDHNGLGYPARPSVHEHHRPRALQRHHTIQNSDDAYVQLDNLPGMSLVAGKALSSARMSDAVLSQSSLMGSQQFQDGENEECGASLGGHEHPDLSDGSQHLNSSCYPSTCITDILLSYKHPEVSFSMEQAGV
Sequence of Mitogen-activated protein kinase 9 (P45984 whole entry, looked up): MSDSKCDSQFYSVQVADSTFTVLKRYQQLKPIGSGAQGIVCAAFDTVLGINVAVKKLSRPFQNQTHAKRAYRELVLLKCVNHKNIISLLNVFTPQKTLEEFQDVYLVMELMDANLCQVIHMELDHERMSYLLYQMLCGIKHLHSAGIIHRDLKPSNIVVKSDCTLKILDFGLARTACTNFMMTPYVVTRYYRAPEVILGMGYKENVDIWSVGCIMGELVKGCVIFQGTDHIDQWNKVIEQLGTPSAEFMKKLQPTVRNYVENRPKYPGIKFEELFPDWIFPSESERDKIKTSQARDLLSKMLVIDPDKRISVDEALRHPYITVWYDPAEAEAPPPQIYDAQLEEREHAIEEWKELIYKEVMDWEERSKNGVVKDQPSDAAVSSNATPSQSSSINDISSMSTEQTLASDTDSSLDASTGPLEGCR
Sequence of Calcium/calmodulin-dependent protein kinase type II subunit beta (Homo sapiens) (Q13554 whole entry): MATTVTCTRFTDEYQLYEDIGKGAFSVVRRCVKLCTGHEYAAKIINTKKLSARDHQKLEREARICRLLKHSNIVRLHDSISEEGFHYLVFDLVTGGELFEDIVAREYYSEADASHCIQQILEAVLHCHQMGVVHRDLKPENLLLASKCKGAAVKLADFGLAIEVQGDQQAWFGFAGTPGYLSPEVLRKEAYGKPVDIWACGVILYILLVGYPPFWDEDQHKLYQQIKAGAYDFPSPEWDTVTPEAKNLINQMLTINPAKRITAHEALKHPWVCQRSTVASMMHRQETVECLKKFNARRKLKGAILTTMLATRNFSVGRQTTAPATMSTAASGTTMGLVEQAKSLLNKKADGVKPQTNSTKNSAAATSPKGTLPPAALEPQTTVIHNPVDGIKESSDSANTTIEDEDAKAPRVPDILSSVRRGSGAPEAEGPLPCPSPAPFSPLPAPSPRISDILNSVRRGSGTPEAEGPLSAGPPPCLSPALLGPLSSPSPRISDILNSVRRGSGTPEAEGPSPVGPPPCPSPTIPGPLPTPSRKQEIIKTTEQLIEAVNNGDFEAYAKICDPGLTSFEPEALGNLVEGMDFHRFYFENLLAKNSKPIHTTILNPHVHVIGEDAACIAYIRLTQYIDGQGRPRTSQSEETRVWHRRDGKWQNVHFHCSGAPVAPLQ

`Cc1cc([C@@H](C)Nc2ccccc2C(=O)O)c2nc(N3CCOCC3)cc(=O)n2c1` [AZD-6482] displayed a % of control in [1] of 95%.

As to `CC(C)(O)[C@H](F)CN1Cc2cc(NC(=O)c3cnn4cccnc34)c(N3CCOCC3)cc2C1=O`, the concentration for a half-maximal effect (EC50) (in general, the midpoint of the concentration-response curve) in assay [2] is over 50 µM.

`CN(C)C/C=C/C(=O)Nc1ccc(C(=O)N2CCCC(Nc3ncc(Cl)c(-c4c[nH]c5ccccc45)n3)C2)cc1` (centres undefined): in assay [3], the % of control came to 89%. Molecule `CCN(CC)CCCCNc1ncc2cc(-c3cc(OC)cc(OC)c3)c(NC(=O)NC(C)(C)C)nc2n1` returned a % of control in assay [4] of 100%. As for `Cn1cc(-n2cnc3c(NCc4nc5cc(Cl)c(Cl)cc5[nH]4)nc(N4CCOCC4)nc32)cn1`, the % of control in assay [5] is 1.33%. For `CC[C@@H]1[C@H](F)C(=O)N[C@@H]1COc1nccc2cc(C(N)=O)c(OC)cc12` [ZIMLOVISERTIB], the % of inhibition is -20.4% in assay [6] (at 0.01 µM); 12.3% in assay [6] (at 0.04 µM); 15.1% in assay [6] (at 0.2 µM); 7.7% in assay [6] (at 1 µM); -1.3% in [6] (at 5 µM); 0.603% in [7]. Regarding `CCC(=O)N1CC[C@H](Nc2ncnc3c2CN(c2cnc(OC)c(C(F)(F)F)c2)CC3)C1` [LENIOLISIB], the concentration for half-maximal inhibition (IC50) – broadly, the concentration at which inhibition is half-maximal – in [8] is over 10 µM. Molecule `COCC(=O)NC/C=C/c1ccc2ncnc(Nc3ccc(Oc4ccc(C)nc4)c(C)c3)c2c1` [CP-724714] had a % of control in assay [9] of 100%. Consider `N#Cc1cccc(-c2c[nH]c3ncnc(N4CCOCC4)c23)c1`, for which, in assay [10], the % of inhibition was found to be 11%.
